The text below walks through data of US8268635B2, “Methods of identifying agents that selectively activate p38 and/or NKkB signaling” (priority 2006, dated 2012).

Where no end group is shown, it is not given here.

One experiment concerns p38. Put plainly: p38 activity in HEK293T cells. In kind it is cell-based, human. Here is the method:
HEK 293T cells were stably transfected with wild-type TRAF2, a dominant-negative TRAF2 (ΔTRAF2) or an empty vector. TNF70-80 (10 μM) was added and the cells were incubated for 5 min. at 37° C., lysed and p38 immunoprecipitated. Kinase activity was assayed using myelin basic protein as a substrate. The data (representative digital radiogram and profile of phosphorylated MBP) shown are representative of 2 experiments.
HEK 293T cells were obtained from the American Type Culture Collection and maintained in DMEM, supplemented with 10% fetal calf serum. Cells, stably transfected with pRK5-TRAF2-FLAG, pRK5-TRAF287-501-FLAG (Dr. V. Dixit, Genentech Inc., South San Francisco) or an empty plasmid using LipofectAMINE 2000, were obtained from Dr P Xia, Hanson Institute, Adelaide, Australia) (Xia, P., Wang, L., Moretti, P. A., Albanese, N., Chai, F., Pitson, S. M., D'Andrea, R. J., Gamble, J. R., and Vadas, M. A. (2002) J. Biol. Chem. 277: 7996-8003).
Lysates containing equal amounts of protein (0.5-1 mg) were precleared with protein A sepharose (4° C.) before being incubated with anti-KHS, anti-p38, anti-ASK-1 or anti-ERK2 antibody (3 μg/sample). After mixing for 2 h (4° C.), the immune complexes were precipitated by the addition of protein A sepharose. The immunoprecipitates were collected by centrifugation (16,000 g×15s) and washed once with buffer A (4° C.), once with buffer B (10 mM Tris/HCl, pH 7.6, 100 mM NaCl, 1 mM EDTA and 100 μM […] and once with assay buffer (Hii, C. S., Huang, Z. H., Bilney, A., Costabile, M., Murray, A. W., Rathjen, D. A., Der, C. J., and Ferrante, A. (1998) J. Biol. Chem. 273: 19277-19282).
KHS (hereon referred to as “GCKR”) activity was assayed as described previously using myelin basic protein as a substrate (Shi, C. S., Leonardi, A., Kyriakis, J., Siebenlist, U., and Kerhl, J. H. (1999) J. Immunol. 163: 3279-3285). ASK-1 activation was determined in immunoprecipitates of ASK-1 by autophosphorylation (Kyriakis, J. M., and Auruch, J. (2001) Physiol. Rev. 81: 807-869). p38 and ERK activities were determined as described using myelin basic protein as a substrate (Hii, C. S., Huang, Z. H., Bilney, A., Costabile, M., Murray, A. W., Rathjen, D. A., Der, C. J., and Ferrante, A. (1998) J. Biol. Chem. 273: 19277-19282). […] A solid phase assay using glutathione-S-transferase (GST)-conjugated-jun (1-79) was employed to assay JNK activity (Hii, C. S., Huang, Z. H., Bilney, A., Costabile, M., Murray, A. W., Rathjen, D. A., Der, C. J., and Ferrante, A. (1998) J. Biol. Chem. 273: 19277-19282). Phosphorylated ASK-1, myelin basic protein and GST-jun (1-79) were fractionated on 8, 16 and 12% SDS polyacrylamide gels, respectively, and the bands were detected and radioactivity determined using an Instant Imager (Packard Instruments, Canberra, Australia). […]

A further experiment concerns JNK. The experiment in a line: JNK activity in adherent neutrophils. To be noted: neutrophils pre-adhered to plasma-coated dishes; 15 min; TNF 1000 U/ml, TNF70-80 10 μM. The class given is cell-based, human. Here is the method: Neutrophils were prepared from peripheral blood of healthy donors by a rapid single-step technique (Kumaratilake, L. M., Rathjen, D. A., Mack, P., Widmer, F., Prasertsiriroj, V., and Ferrante, A. (1995) J. Clin. Invest. 95: 2315-2323) using Hypaque-Ficoll and according to the institution's guidelines on human ethics. […] These were either used as cells in suspension or as adhered neutrophils by adding the cells to plasma coated plates as previously described (Powell, W., Gravel, S., Halwani, F., Hii, C. S., Huang, Z. H., Tan, A. M., and Ferrante, A. (1997) J. Immunol. 159: 2952-2959).
KHS (hereon referred to as “GCKR”) activity was assayed as described previously using myelin basic protein as a substrate (Shi, C. S., Leonardi, A., Kyriakis, J., Siebenlist, U., and Kerhl, J. H. (1999) J. Immunol. 163: 3279-3285). ASK-1 activation was determined in immunoprecipitates of ASK-1 by autophosphorylation (Kyriakis, J. M., and Auruch, J. (2001) Physiol. Rev. 81: 807-869). p38 and ERK activities were determined as described using myelin basic protein as a substrate (Hii, C. S., Huang, Z. H., Bilney, A., Costabile, M., Murray, A. W., Rathjen, D. A., Der, C. J., and Ferrante, A. (1998) J. Biol. Chem. 273: 19277-19282). […]

Consider PSTHVLITHTI-OH [TNF70-80], for which, in the experiment with p38, the “activity of p38 in HEK293T cells” value is listed as “able to stimulate the activity of p38”. Moreover, in the experiment with p38 (TNF70-80 10 μM, 5 min), the “p38 activation in HEK293T cells expressing dominant-negative ΔTRAF2” value was “substantial attenuation of this response” and the “p38 activation in HEK293T cells over expressing TRAF2 compared to empty plasmid” value is “enhanced the activation of p38 by TNF70-80”. In addition, the “increase of p38 activity over control in HEK293T cells” value in the experiment on p38 (treatment for 5 min, p<0.05, n=3) was 243+27 % over control. Also, the “activity of JNK in adherent neutrophils” value with JNK is “but not TNF70-80 stimulated the activity of JNK”.
